Results on three molecules are retold here after PMC8943889, “Synthetic studies with the brevicidine and laterocidine lipopeptide antibiotics including analogues with enhanced properties and in vivo efficacy” (Chemical Science, 2022).

In brackets after ≈: the same amount, converted by molar mass.

Common to all, as to type: cell-based
For one experiment, the system named is A. baumannii 2018-006. Conditions: 2018-006, 16 h. As for the experimental part: (§1) Minimum inhibitory concentrations (MICs) were determined by broth microdilution according to CLSI guidelines in triplicate. Blood agar plates were inoculated with glycerol stocks of E. coli ATCC 25922, E. coli MCR-1 (clinical isolate from Utrecht Medical Centre, NL), E. coli EQAS MCR-2 (clinical isolate from Wageningen University and Research, NL), K. pneumoniae ATCC 11228, K. pneumoniae ATCC 13883, K. pneumonia 2048 (clnical isolate from Vrije Universiteit Amsterdam Medical Centre, NL), K. pneumonia JS-123 (clinical isolate from Utrecht Medical […]
(§2) (clinical isolate from Rijksinstituut voor Volksgezondheid en Milieu, NL), A. baumannii MDR (clinical isolate from Vrije Universiteit Amsterdam Medical Centre, NL), P. aeruginosa ATCC 27853, P. aeruginosa PAO1, P. aeruginosa NRZ-03961 (Reference strain from Das Nationale Referenzzentrum für gramnegative Krankenhauserreger, DE), P. aeruginosa M-120 (clinical isolate from Leiden University Medical Centre, NL) and S. aureus USA300 (clinical isolate from Texas Children's Hospital, USA). E. coli 25922 MCR1 was grown on LB agar supplemented with kanamycin. The inoculated agar plates were then incubated for 16 h at 37°C . Individually grown colonies were subsequently used to inoculate 3 mL aliquots of TSB that were then incubated at 37°C with shaking at 220 rpm. In parallel, the lipopeptide antibiotics to be assessed were serially diluted with Mueller-Hinton broth (MHB) in polypropylene 96-well plates (50 µL in each well).
(§3) Once the OD600 of the bacterial suspensions reached 0.5, the bacteria were diluted with MHB (final concentration 2 × 10^5 CFU mL−1) and added to the microplates containing the test compounds (50 µL to each well, final volume: 100 µL). The well-plates were sealed with an adhesive membrane and after 16 h of incubation at 37°C with shaking at 220 rpm the wells were visually inspected for bacterial growth. MIC values reported are based on three technical replicates and defined as the lowest concentration of the compound that prevented visible growth of bacteria. […]

A further experiment deals with A. baumannii ATCC 17961. As to conditions: ATCC 17961, 16 h. As to the method: as §1, §2, §3
In the next experiment the test system is A. baumannii ATCC 17978. As to conditions: ATCC 17978, 16 h. As for the experimental part: as §1, §2, §3
Experiment [1] relates to E. coli ATCC 25922. As to conditions: ATCC 25922, 16 h. As for the experimental part: as §1, §2, §3
The subject of another experiment is K. pneumoniae 2048. Conditions: 2048, 16 h. As for the experimental part: as §1, §2, §3
A further experiment has as its system K. pneumoniae ATCC 11228. As to conditions: ATCC 11228, 16 h. As to the method: as §1, §2, §3
The subject of another experiment is K. pneumoniae ATCC 13883. As to conditions: ATCC 13883, 16 h. As for the experimental part:
as §1, §2, §3

A further experiment relates to K. pneumoniae JS-123. Conditions: JS-123, 16 h. As for the experimental part:
as §1, §2, §3

A further experiment relates to P. aeruginosa ATCC 27853. Conditions: ATCC 27853, 16 h. As to the method:
as §1, §2, §3

The next experiment concerns P. aeruginosa M-120. As to conditions: M-120, 16 h. As to the method: as §1, §2, §3
For another experiment, the system named is P. aeruginosa NRZ-03961. Conditions: NRZ-03961, 16 h. As for the experimental part: as §1, §2, §3
Another experiment has as its system P. aeruginosa PAO1. As to conditions: PAO1, 16 h. As for the experimental part: as §1, §2, §3
A further experiment has as its system S. aureus USA300. As to conditions: USA300, 16 h. As to the method:
as §1, §2, §3

Another experiment deals with Gram-negative bacteria. Put plainly: MIC comparison across the bacterial panel of Table 1. Conditions: enantiomer versus natural product, strains of Table 1. As for the experimental part:
as §1
as §2, with “Individually grown colonies were subsequently used to inoculate 3 mL aliquots of TSB that were then incubated at 37°C with shaking at 220 rpm.” left out, “well). […]” for “well).”

Experiment [2] relates to E. coli ATCC 25922. Put plainly: LPS antagonization assay. As to conditions: E. coli ATCC 25922, MHB supplemented with 1 mg/mL LPS from E. coli O55:B5, 16 h 37 °C. As for the experimental part: Figure S6. LPS antagonization assay. A blood agar plate was inoculated with a glycerol stock of E. coli ATCC 25922. The […]
inoculated agar plate was then incubated for 16 h at 37 °C. An individually grown colony was subsequently used to inoculate 3 mL […]
of TSB that was then incubated at 37 °C with shaking at 220 rpm. In parallel, the compounds to be assessed were serially diluted […]
with Mueller-Hinton broth (MHB) in polypropylene 96-well plates (50 µL in each well). Once the OD600 of the bacterial […]
suspensions reached 0.5, the bacteria were diluted with MHB (final concentration 2 × 10^5 CFU mL−1). The media were then either […]
supplemented with 1 mg/mL of LPS (lipopolysaccharides from E. coli O55:B5, Sigma-Aldrich) or added directly to the microplates […]
containing the test compounds (50 µL to each well, final volume: 100 µL). The well-plates were sealed with an adhesive membrane and after 16 h of incubation at 37°C with shaking at 220 rpm. The w ells were visually inspected for bacterial growth.
(1 picture or pasted object on this page, not shown here)

On to `CCC(C)CCC(=O)N[C@@H](CC(N)=O)C(=O)N[C@@H](Cc1ccc(O)cc1)C(=O)N[C@@H](Cc1c[nH]c2ccccc12)C(=O)N[C@@H](CCCN)C(=O)N[C@H](CCCN)C(=O)NCC(=O)N[C@@H](CCCN)C(=O)N[C@H](Cc1c[nH]c2ccccc12)C(=O)N[C@H]1C(=O)N[C@H]([C@H](C)CC)C(=O)NCC(=O)N[C@H](CO)C(=O)O[C@H]1C` (single isomer, unassigned) [ent-Brev (ent-1), ent-brevicidine], for which the MIC is 8 to 16 µg/mL in the experiment with A. baumannii 2018-006; 32 µg/mL (≈ 21.1 µM) against A. baumannii ATCC 17961; 16 to 32 µg/mL in the experiment on A. baumannii ATCC 17978; 16 µg/mL (≈ 10.5 µM) in the experiment on E. coli ATCC 25922 [1]; 32 µg/mL (≈ 21.1 µM) in the experiment with K. pneumoniae 2048; 32 µg/mL (≈ 21.1 µM) in the experiment with K. pneumoniae ATCC 11228. In addition, the MIC against K. pneumoniae ATCC 13883 came to 32 µg/mL (≈ 21.1 µM); against K. pneumoniae JS-123, 8 µg/mL (≈ 5.26 µM); against P. aeruginosa ATCC 27853, 16 µg/mL (≈ 10.5 µM); against P. aeruginosa M-120, 16 µg/mL (≈ 10.5 µM); with P. aeruginosa NRZ-03961, 32 µg/mL (≈ 21.1 µM); in the experiment on P. aeruginosa PAO1, 32 µg/mL (≈ 21.1 µM). In the experiment on S. aureus USA300, this molecule came in with a minimal inhibitory concentration (MIC) above 64 µg/mL. Also, the “MIC values higher than the natural products” value against Gram-negative bacteria was 8- to 32 fold.

`CC[C@@H](C)[C@H]1NC(=O)[C@H](NC(=O)[C@@H](Cc2c[nH]c3ccccc23)NC(=O)[C@H](CCCN)NC(=O)CNC(=O)[C@@H](CCCN)NC(=O)[C@H](CCCN)NC(=O)[C@H](Cc2c[nH]c3ccccc23)NC(=O)[C@H](Cc2ccc(O)cc2)NC(=O)[C@H](CO)NC(=O)CCCCCC(C)C)[C@H](C)OC(=O)CNC(=O)CNC(=O)[C@@H](CC(N)=O)NC1=O` (single isomer, unassigned) [ent-Lat (ent-2), ent-laterocidine]: the MIC was 4 µg/mL (≈ 2.49 µM) in the experiment with A. baumannii 2018-006; 4 µg/mL (≈ 2.49 µM) in the experiment on A. baumannii ATCC 17961; 4 µg/mL (≈ 2.49 µM) against A. baumannii ATCC 17978; 8 µg/mL (≈ 4.98 µM) in the experiment on E. coli ATCC 25922 [1]; 16 µg/mL (≈ 9.97 µM) in the experiment with K. pneumoniae 2048; 16 µg/mL (≈ 9.97 µM) against K. pneumoniae ATCC 11228. The MIC amounted to 16 µg/mL (≈ 9.97 µM) in the experiment with K. pneumoniae ATCC 13883; 4 µg/mL (≈ 2.49 µM) against K. pneumoniae JS-123; 8 µg/mL (≈ 4.98 µM) in the experiment on P. aeruginosa ATCC 27853; 16 µg/mL (≈ 9.97 µM) in the experiment with P. aeruginosa M-120; 16 µg/mL (≈ 9.97 µM) against P. aeruginosa NRZ-03961; 16 µg/mL (≈ 9.97 µM) with P. aeruginosa PAO1. For the same molecule, the MIC against S. aureus USA300 came to 64 µg/mL (≈ 39.9 µM). Also, the “MIC values higher than the natural products” value against Gram-negative bacteria is reported as 8- to 32 fold. The “decrease of antibacterial activity in the presence of LPS” value in the experiment with E. coli ATCC 25922 [2] is at least 8 fold.

In the case of `CC[C@H](C)[C@@H]1NC(=O)[C@@H](NC(=O)[C@H](Cc2c[nH]c3ccccc23)NC(=O)[C@@H](CCCN)NC(=O)CNC(=O)[C@H](CCCN)NC(=O)[C@@H](CCCN)NC(=O)[C@@H](Cc2c[nH]c3ccccc23)NC(=O)[C@@H](Cc2ccc(O)cc2)NC(=O)[C@@H](CO)NC(=O)CCCCCC(C)C)[C@@H](C)OC(=O)CNC(=O)CNC(=O)[C@H](CC(N)=O)NC1=O` [Lat (2), laterocidine], the MIC in the experiment with A. baumannii 2018-006 is 2 µg/mL (≈ 1.25 µM); against A. baumannii ATCC 17961 it was 0.5 µg/mL (≈ 0.312 µM); in the experiment with A. baumannii ATCC 17978, 0.5 µg/mL (≈ 0.312 µM); in the experiment with E. coli ATCC 25922 [1], 1 µg/mL (≈ 0.623 µM); in the experiment on K. pneumoniae 2048 it was 2 µg/mL (≈ 1.25 µM); in the experiment on K. pneumoniae ATCC 11228, 2 µg/mL (≈ 1.25 µM). Also, the MIC is 1 µg/mL (≈ 0.623 µM) against K. pneumoniae ATCC 13883; 0.5 µg/mL (≈ 0.312 µM) in the experiment on K. pneumoniae JS-123; at most 0.5 µg/mL in the experiment on P. aeruginosa ATCC 27853; 1 µg/mL (≈ 0.623 µM) against P. aeruginosa M-120; 1 to 2 µg/mL with P. aeruginosa NRZ-03961; 1 µg/mL (≈ 0.623 µM) in the experiment with P. aeruginosa PAO1. The same molecule came in with an MIC against S. aureus USA300 of 64 µg/mL (≈ 39.9 µM). Further, in the experiment on E. coli ATCC 25922 [2], the “decrease of antibacterial activity in the presence of LPS” value was at least 8 fold.
